Columns and labels:
BV2 microglia cells [1] = test: Nitrite release (Griess reaction) in LPS-treated BV2 microglia; assay type: cell-based; settings: LPS 1 μg/mL, basal = 100
Description: The COX-1 inhibition data prompted us to undertake further work on the activity of compounds 3 in a neuroinflammation situation. Once we had verified that the compounds studied were not toxic per se in microglia BV2 cells (see the data in Table S1), we measured the nitrites released to determine the efficacy of our compounds in reducing microglia activation. Nitric oxide is a potent mediator of the classic activated microglia phenotype (M1); in fact, the lack of nitrite release correlated with an anti-inflammatory microglia (M2) phenotype. Therefore, we evaluated the response of the BV2 microglia cells to a challenge of 1 μg/mL LPS. For this purpose, BV2 microglia cells were incubated with LPS, a well-known agonist of the toll-like receptor 4 (TLR4) that causes a neuroinflammatory response, in combination with increasing concentrations of our COX-1 inhibitors (1, 3, and 10 μM). […] Similar results were observed after 48 h of the LPS treatment.
(§1) Cultures were seeded into flasks containing supplemented medium and kept at 37 °C in a humidified atmosphere of 5% CO2 and 95% air. For assays, BV-2 cells were subcultured in 48-well plates at a seeding density of 1 × 10^5 cells per well. Cells were treated with LPS (Sigma-Aldrich, Madrid, Spain) for 24 or 48 h before confluence in RPMI with 1% FBS.
The NO assay was performed using the previously reported protocols. Briefly, 100 μL of culture supernatants were mixed with the same volume of Griess assay regent (1% sulfanilamide (Sigma Aldrich, Madrid, Spain), 0.1% naphthylethylenediamine dihydrochloride, and 2.5% phosphoric acid). Ten minutes later, the 560-nm absorbance was measured.

ovine COX-1 = biological target: T1, ovine COX-1 (Ovis aries, UniProt P05979); test: Cyclooxygenase colorimetric inhibitor screening assay, COX-1; assay type: biochemical;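 further: COX peroxidase activity read colorimetrically as oxidized TMPD at 590 nm, arachidonic acid as substrate, inhibitors tested at 0.001–50 µM from DMSO stocks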
T1 construct: purchased Cayman Chemicals 701050
T1 sequence (P05979 25-600): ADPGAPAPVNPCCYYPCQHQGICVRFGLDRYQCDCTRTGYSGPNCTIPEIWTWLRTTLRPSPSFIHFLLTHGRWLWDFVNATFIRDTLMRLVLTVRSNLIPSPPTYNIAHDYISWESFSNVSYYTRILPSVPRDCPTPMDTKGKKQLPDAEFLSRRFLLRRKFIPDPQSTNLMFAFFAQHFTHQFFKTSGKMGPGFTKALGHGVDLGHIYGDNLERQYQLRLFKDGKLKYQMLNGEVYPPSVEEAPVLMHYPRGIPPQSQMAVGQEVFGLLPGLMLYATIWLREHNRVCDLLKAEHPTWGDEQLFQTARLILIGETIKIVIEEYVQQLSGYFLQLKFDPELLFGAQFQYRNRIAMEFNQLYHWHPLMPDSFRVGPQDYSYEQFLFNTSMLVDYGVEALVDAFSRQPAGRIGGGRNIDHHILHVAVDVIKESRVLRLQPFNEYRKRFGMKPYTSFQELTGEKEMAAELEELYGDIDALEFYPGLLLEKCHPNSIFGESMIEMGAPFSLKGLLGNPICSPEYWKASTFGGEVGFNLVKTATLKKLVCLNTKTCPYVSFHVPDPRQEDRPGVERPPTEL
Description: Newly synthesized compounds were evaluated for their ability to inhibit ovine COX-1 or human COX-2 enzyme by measuring the extent (%) of enzyme activity inhibition at different concentrations (0.001, 0.01, 0.1, 1, 10, 50 μM). […] The assay kit measures the peroxidase component of COXs that is assayed colorimetrically by monitoring the appearance of oxidized N,N,N′,N′-tetramethyl-p-phenylenediamine (TMPD) a λ = 590 nm. […] Stock solutions of test compounds were dissolved in DMSO.

BV2 microglia cells [2] = test: LPS-induced activated (ramified) phenotype of BV2 microglia; assay type: cell-based; settings: 3 μM, LPS 1 μg/mL, 24 h
Description: Next, we set out to study the changes in microglia phenotype under this toxicity protocol. As mentioned above, microglia are comprised of variable morphology cells that are always adapting to the surrounding media and, therefore, to physiopathological conditions. Indeed, morphological appearance is well correlated with the different states of microglia activation. The microglia-activated phenotype (M1), which is the classical state of this kind of cell in response to proinflammatory insults such as LPS, is linked with the overexpression of a plethora of cytokines and inflammatory markers, namely TNF, IL-1β, IL-6, MCP-1 or CD11b. All of these markers are commonly associated with morphological changes towards an amoeboid phenotype in primary cultures or in in vivo studies. Nevertheless, it has been recently described that BV2 microglia, as well as macrophages, turn from rounded to spindle-shaped or multipolar phenotypes in response to various M1 proinflammatory stimuli such as LPS/IFNγ or spinal cord injury conditioned media. In this context, we assessed the ability of our compounds to prevent the morphological changes induced by LPS by analyzing the percentage of BV2 ramified cells (multipolar or spindle) over the total BV2 per field following cell incubation with our compounds and 1 μg/mL LPS for 24 h.
as §1

- inhibition at 50 µM (ovine COX-1; ovine COX-1, 50 µM, read-out: oCOX-1, % Inhibition at 50 µM (converted)): 83%
- IC50 (ovine COX-1; ovine COX-1, colorimetric kit, triplicate, read-out: oCOX-1, IC50): 1100 ± 180 nM
- COX-1 selectivity (in words) (ovine COX-1; ovine COX-1 vs human COX-2): complete selectivity towards COX-1
SMILES: Cc1ccc(-c2cc(N)cc(-c3ccccc3)c2)cc1 [Compound 3b, 4-Methyl-5′-amino-m-terphenyl]
- Nitrite Release after 24 h (BV2 microglia cells [1]; 1 μM): 123 ± 8%
- Nitrite Release after 48 h (BV2 microglia cells [1]; 1 μM): 140 ± 14%
- Nitrite Release after 24 h (BV2 microglia cells [1]; 3 μM): 100 ± 4 %
- Nitrite Release after 48 h (BV2 microglia cells [1]; 3 μM): 123 ± 10 %
- Nitrite Release after 24 h (BV2 microglia cells [1]; 10 μM): 105 ± 6 %
- Nitrite Release after 48 h (BV2 microglia cells [1]; 10 μM): 128 ± 10 %
- Reduction of the number of BV2 ramified cells (BV2 microglia cells [2]): 60%
